In ChEMBL document CHEMBL4818988, “Structure-Activity Relationships for the Marine Natural Product Sintokamides: Androgen Receptor N-Terminus Antagonists of Interest for Treatment of Metastatic Castration-Resistant Prostate Cancer” (J Nat Prod, 2021):
The source made the active and inactive calls. No cut-off for these calls is given here.

Columns and labels:
[1] = target: T1, Androgen receptor (Homo sapiens) (UniProt P10275); test: (§1) Antagonist activity at AR in human LNCaP cells transfected with PSA assessed as inhibition of R1881-induced PSA luciferase activity pretreated with compound followed by R1881 addition and measured after 48 hrs by luciferase assay; format: cell-based; details: filed as antagonist
T1 sequence (whole entry): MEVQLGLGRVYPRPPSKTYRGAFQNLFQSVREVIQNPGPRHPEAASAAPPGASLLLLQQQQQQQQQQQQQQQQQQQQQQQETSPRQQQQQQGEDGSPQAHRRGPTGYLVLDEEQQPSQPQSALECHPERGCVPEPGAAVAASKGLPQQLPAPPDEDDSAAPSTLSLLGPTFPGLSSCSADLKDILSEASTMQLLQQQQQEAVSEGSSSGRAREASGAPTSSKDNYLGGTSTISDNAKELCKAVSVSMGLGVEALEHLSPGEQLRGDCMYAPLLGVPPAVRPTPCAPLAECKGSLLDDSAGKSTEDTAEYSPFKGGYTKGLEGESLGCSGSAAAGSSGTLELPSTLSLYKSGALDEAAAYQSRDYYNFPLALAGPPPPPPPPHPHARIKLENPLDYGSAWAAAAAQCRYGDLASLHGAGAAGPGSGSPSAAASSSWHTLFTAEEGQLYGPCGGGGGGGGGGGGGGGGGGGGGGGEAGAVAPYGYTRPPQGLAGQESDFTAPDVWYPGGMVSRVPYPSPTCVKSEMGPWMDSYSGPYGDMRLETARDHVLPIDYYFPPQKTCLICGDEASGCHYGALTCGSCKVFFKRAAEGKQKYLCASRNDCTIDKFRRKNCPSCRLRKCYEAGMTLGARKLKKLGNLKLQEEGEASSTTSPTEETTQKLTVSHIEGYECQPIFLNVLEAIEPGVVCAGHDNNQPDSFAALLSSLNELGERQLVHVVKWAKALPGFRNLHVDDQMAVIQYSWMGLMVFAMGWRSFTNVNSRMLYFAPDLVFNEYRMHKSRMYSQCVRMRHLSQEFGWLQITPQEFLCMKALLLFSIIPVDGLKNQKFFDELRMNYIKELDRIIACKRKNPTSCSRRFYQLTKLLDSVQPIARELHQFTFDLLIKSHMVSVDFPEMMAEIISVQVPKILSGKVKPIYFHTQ

[2] = target: T1, Androgen receptor (Homo sapiens); test: Antagonist activity at AR in human LNCaP cells transfected with PSA assessed as inhibition of R1881-induced PSA luciferase activity pretreated with compound followed by R1881 addition at 10 uM and measured after 48 hrs by luciferase assay; format: cell-based
[3] = target: T1, Androgen receptor (Homo sapiens); test: Antagonist activity at AR in human LNCaP cells transfected with PSA assessed as inhibition of R1881-induced PSA luciferase activity pretreated with compound followed by R1881 addition at 25 uM and measured after 48 hrs by luciferase assay; format: cell-based
[4] = target: T1, Androgen receptor (Homo sapiens); test: Antagonist activity at AR in human LNCaP cells transfected with PSA assessed as inhibition of R1881-induced PSA luciferase activity pretreated with compound followed by R1881 addition at 50 uM and measured after 48 hrs by luciferase assay; format: cell-based
Androgen receptor = target: T2, Androgen receptor (Homo sapiens, UniProt P10275); test: as §1; format: cell-based
T2 sequence (P10275 whole entry): T1 sequence (whole entry)

PC-3 = test: Cytotoxicity against human PC3 cells assessed as reduction in cell viability after 72 hrs by Alamar blue assay; format: functional, cell-based; details: PC-3, 72 h
[5] = target: T1, Androgen receptor (Homo sapiens); test: Antagonist activity at AR in human LNCaP cells transfected with PSA assessed as inhibition of R1881-induced PSA luciferase activity pretreated with compound followed by R1881 addition at 5 uM and measured after 48 hrs by luciferase assay; format: cell-based
DU-145 = test: Cytotoxicity against human DU145 cells assessed as reduction in cell viability after 72 hrs by Alamar blue assay; format: functional, cell-based; details: DU-145, 72 h
[6] = target: T1, Androgen receptor (Homo sapiens); test: Antagonist activity at AR in human LNCaP cells transfected with PSA assessed as inhibition of R1881-induced PSA luciferase activity pretreated with compound followed by R1881 addition at 35 uM and measured after 48 hrs by luciferase assay; format: cell-based
[7] = target: T1, Androgen receptor (Homo sapiens); test: Antagonist activity at AR in human LNCaP cells transfected with PSA assessed as inhibition of R1881-induced PSA luciferase activity pretreated with compound followed by R1881 addition at 15 uM and measured after 48 hrs by luciferase assay; format: cell-based

## CCC(=O)N[C@H](CCC(Cl)(Cl)Cl)C(=O)N1C(=O)C=C(OC)[C@@H]1CCC(Cl)(Cl)Cl
[1]
  Activity: Dose-Dependent Effect

## CCC(=O)N[C@H](CCC(Cl)(Cl)Cl)C(=O)N1C(=O)C=C(OC)[C@H]1CCC(Cl)(Cl)Cl
[1]
  Activity: Dose-Dependent Effect

## CCC(=O)N[C@H](CCCCl)C(=O)N1C(=O)C=C(OC)[C@@H]1CCCCl
[2]
  Activity: inactive
[3]
  Activity: inactive
[4]
  Activity: inactive

## CCC(=O)N[C@H](CCC(Cl)Cl)C(=O)N1C(=O)C=C(OC)[C@@H]1CCC(Cl)Cl
[1]
  Activity: Dose-Dependent Effect

## CCC(=O)N[C@H](C[C@H](C)C(Cl)(Cl)Cl)C(=O)N1C(=O)C=C(OC)[C@@H]1C[C@H](C)C(Cl)Cl
[2]; filed as antagonist
  Activity: Active
Androgen receptor
  IC50: 6.5 µM
PC-3
  IC50: 29 µM
[5]; filed as antagonist
  Activity: Active
DU-145
  IC50: > 35 µM

## CCC(=O)N[C@H](C[C@H](C)C(Cl)(Cl)Cl)C(=O)N1C(=O)C=C(OC)[C@@H]1C[C@H](C)C(Cl)(Cl)Cl
[2]; filed as antagonist
  Activity: Active
[5]; filed as antagonist
  Activity: Active

## CCC(=O)N[C@H](CC(C)C)C(=O)N1C(=O)C=C(OC)[C@@H]1CC(C)C
[5]
  Activity: inactive
[6]
  Activity: inactive
[7]
  Activity: inactive

## CCC(=O)N[C@H](CCC(Cl)Cl)C(=O)N1C(=O)C=C(OC)[C@H]1CCC(Cl)Cl
[1]
  Activity: Dose-Dependent Effect
